Biological target: T1, PKC-ε-RACK1 (Homo sapiens, UniProt Q02156)
T1 construct: host or cells: SH-SY5Y neuroblastoma cells
Assay: PKC-ε interaction with RACK1 (confocal colocalization, coimmunoprecipitation)
Type: cell-based
Conditions: 0.27 nM
Protocol: Cells were grown in two chambered slides (Nunc, USA) at low density. For immunofluorescence staining, the cells were washed with PBS (pH 7.4) and fixed with 4% paraformaldehyde for 4 min. Following fixation, the cells were blocked and permeabilized with 5% serum and 0.3% Triton X 100 in 1×PBS for 30 min. The cells were washed three times with 1×PBS and incubated with primary antibodies for 1 hr at 1:100 dilution. The incubation slides were then washed again three times in 1×PBS and were incubated with the FITC anti-rabbit IgG and Rhodamine anti-mouse IgG for 1 hr at 1:400 dilution. The cells were further washed and treated with DAPI (4′,6-diamidino-2′-phenylindole, dihydrochloride) (Thermo Scientific, USA) to stain the nucleus. Finally, the slides were washed and mounted in Pro Long Gold antifade mounting solution (Invitrogen, USA) and were viewed under the LSM 710 Meta confocal microscope (Zeiss) at 350 nm, 490 nm, and 540 nm excitation and 470 nm, 525 nm, and 625 nm emission for DAPI, FITC, and Rhodamine respectively. Six individual fields at 63× oil lens magnification were analyzed for the mean fluorescence intensity (MFI) in each channel. The co-localization correlation generated by the ZEN software (Zeiss).
Coimmunoprecipitation was done following protocol described Besson et al. with slight modification. See Besson et al. (2002) J Biol Chem 277, 22073-22084. […] (DSP) for 30 min at room temperature to crosslink the intracellular proteins following the manufacturer's protocol. After crosslinking the proteins, the cells were lysed in the homogenizing buffer mentioned above. For immunoprecipitation, 500 μg of protein was incubated with 4 μg of appropriate antibody and 25 μl of Protein-A Sepharose beads (Invitrogen, USA) for 3 hr at 4° C. Immunoprecipitates were rinsed three times in the homogenizing buffer and were subjected to Western blot as described earlier.
Next, cells were prepared according to the coimmunoprecipitation methods discussed above.

T1 sequence (Q02156 whole entry): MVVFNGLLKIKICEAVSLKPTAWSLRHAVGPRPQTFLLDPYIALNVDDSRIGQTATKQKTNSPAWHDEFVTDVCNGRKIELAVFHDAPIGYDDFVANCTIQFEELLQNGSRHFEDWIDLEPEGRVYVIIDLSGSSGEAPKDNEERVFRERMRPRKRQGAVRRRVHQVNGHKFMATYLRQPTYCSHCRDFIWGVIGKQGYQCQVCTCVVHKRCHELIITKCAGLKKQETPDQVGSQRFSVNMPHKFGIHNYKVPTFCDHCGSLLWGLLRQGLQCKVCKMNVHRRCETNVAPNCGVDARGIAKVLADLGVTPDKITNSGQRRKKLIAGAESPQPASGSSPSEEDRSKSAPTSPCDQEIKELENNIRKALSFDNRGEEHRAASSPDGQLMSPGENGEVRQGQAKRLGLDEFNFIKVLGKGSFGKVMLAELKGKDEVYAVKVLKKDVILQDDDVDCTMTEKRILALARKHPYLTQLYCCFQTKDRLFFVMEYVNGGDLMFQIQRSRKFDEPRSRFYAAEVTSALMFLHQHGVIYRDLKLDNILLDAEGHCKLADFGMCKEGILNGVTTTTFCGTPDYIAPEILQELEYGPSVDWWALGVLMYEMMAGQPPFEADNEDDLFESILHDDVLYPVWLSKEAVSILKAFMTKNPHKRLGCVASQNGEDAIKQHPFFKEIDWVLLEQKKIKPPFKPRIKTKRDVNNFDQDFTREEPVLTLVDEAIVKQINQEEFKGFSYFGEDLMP

With CCC/C=C/C=C/C(=O)O[C@H]1/C(=C/C(=O)OC)C[C@H]2C[C@H]([C@@H](C)O)OC(=O)C[C@H](O)C[C@@H]3C[C@H](OC(C)=O)C(C)(C)C(O)(C[C@@H]4C/C(=C/C(=O)OC)C[C@H](/C=C/C(C)(C)[C@]1(O)O2)O4)O3 [Bryostatin-1] the “PKC-ε-RACK1 interaction by RACK1 immunoprecipitation (in words)” value was “increased significantly at 5, 15, and 30 min”, the “colocalization correlation R” value (5 min) was 0.71 and the “colocalization correlation R” value (15 min) was 0.72.
